The text below walks through data of patent publication US20170144969A1, “ANT[…], METHOD FOR PRODUCTION AND USES THEREOF” (priority 2014, published 2017).

“And” between values parts separate entries of the source, which are not always exact repeats. Identical values can stand only once. Like-named read-outs stand apart in the source and are kept apart here. Bounds are passed on as bounds.

One data set concerns E. coli (MTCC 443). The data set can be described thus: Minimum Inhibitory Concentration, micro-dilution broth. It counts as cell-based. Conditions: 24 h, 37° C. On the technique in general: Dilution methods test growth across graded concentrations, often in twofold steps.
The next data set deals with human Red Blood Cells. The data set is described as follows: Haemolytic activity. Conditions: human RBCs, 1 h at 37° C.
Another data set concerns S. aureus (MTCC 737). The data set is described as follows: Minimum Inhibitory Concentration, micro-dilution broth. It counts as cell-based, Staphylococcus aureus. Conditions: 37° C.
The subject of data set [1] is Enterococcus faecium (ATCC 19634). The data set is described as above. It counts as cell-based. Conditions: 24 h, 37° C., read-out: Minimum Inhibitory Concentration E. faceium.
In data set [2] the test system is vancomycin resistant Enterococcus faecium (VRE) (ATCC 51559). The description is as above. In kind it is cell-based. The note with it: 24 h, 37° C.
Another data set has as its system MRSA (ATCC 33591). Described as above. The note with it: 24 h, 37° C. In kind it is cell-based, methicillin-resistant S. aureus.
Data set [3] has as its system Klebsiella pneumoniae (ATCC 700603). The data set is described as above. In kind it is cell-based. The note with it: 24 h, 37° C.

Regarding `CCCCCCCCCC(=O)N(CCCNC(=O)[C@@H](N)Cc1ccccc1)CCCNC(=O)[C@@H](N)Cc1ccccc1.O=C(O)C(F)(F)F.O=C(O)C(F)(F)F` [Compound 1, N,N-bis-[{3-(^LPhe)amino}propyl]decanamide bis(trifluoroacetate)], the MIC with E. coli (MTCC 443) came out at 24 µM; in the data set on S. aureus (MTCC 737) (24 h), 19 µM; in data set [1] it was 36 µM; in data set [2], 17 µM. In the data set on human Red Blood Cells (Table 3), this molecule registered an HC50 of 232. The “Minimum Inhibitory Concentration MRSA” value with MRSA (ATCC 33591) was 25 µM. Also, in data set [3], the “Minimum Inhibitory Concentration K. pneumonie” value was 70 µM.
In the case of `CCCCCCCCCCCCCC(=O)N(CCCNC(=O)[C@@H](N)Cc1ccccc1)CCCNC(=O)[C@@H](N)Cc1ccccc1.O=C(O)C(F)(F)F.O=C(O)C(F)(F)F` [Compound 3, N,N-bis-[{3-(^LPhe)amino}propyl]tetradecanamide bis(trifluoroacetate)], the MIC with E. coli (MTCC 443) came out at 16 µM; against S. aureus (MTCC 737) (24 h) it was 7 µM; in data set [1] it was 5.2 µM; in data set [2], 2.8 µM. In the data set with human Red Blood Cells (Table 3), this molecule came in with an HC50 of 144. In addition, the “Minimum Inhibitory Concentration MRSA” value in the data set on MRSA (ATCC 33591) was 4.8 µM. Besides, in data set [3], the “Minimum Inhibitory Concentration K. pneumonie” value turned out to be 18 µM.
Consider `CCCCCCCCCCCCCCCC(=O)N(CCCNC(=O)[C@@H](N)Cc1ccccc1)CCCNC(=O)[C@@H](N)Cc1ccccc1.O=C(O)C(F)(F)F.O=C(O)C(F)(F)F` [Compound 4, N,N-bis-[{3-(^LPhe)amino}propyl]hexadecanamide bis(trifluoroacetate)], for which the MIC with E. coli (MTCC 443) is 225 µM; in the data set on S. aureus (MTCC 737) (24 h) it was 10 µM; in data set [1], 8.5 µM; in data set [2], 3 µM. In the data set on human Red Blood Cells (Table 3), the HC50 is given as 83. For the same molecule, in the data set on MRSA (ATCC 33591), the “Minimum Inhibitory Concentration MRSA” value is 5.2 µM. Further, the “Minimum Inhibitory Concentration K. pneumonie” value in data set [3] was 70 µM.
Consider `CCCCCCCCCCCCCCCCCC(=O)N(CCCNC(=O)[C@@H](N)Cc1ccccc1)CCCNC(=O)[C@@H](N)Cc1ccccc1.O=C(O)C(F)(F)F.O=C(O)C(F)(F)F` [Compound 5, N,N-bis-[{3-(^LPhe)amino}propyl]octadecanamide bis(trifluoroacetate)], for which the MIC in the data set with E. coli (MTCC 443) is 270 µM; in the data set with S. aureus (MTCC 737) (24 h), 12 µM; in data set [1] it was 11 µM; in data set [2], 3.2 µM. In the data set with human Red Blood Cells (Table 3), this molecule displayed an HC50 of 71. In the data set with MRSA (ATCC 33591), the “Minimum Inhibitory Concentration MRSA” value was 5.6 µM. The “Minimum Inhibitory Concentration K. pneumonie” value in data set [3] came out at 95 µM.
On to `CCCCCCCCCCCCCC(=O)N(CCCNC(=O)[C@@H](N)Cc1c[nH]c2ccccc12)CCCNC(=O)[C@@H](N)Cc1c[nH]c2ccccc12.O=C(O)C(F)(F)F.O=C(O)C(F)(F)F` [Compound 7, N,N-bis-[{3-(^LTrp)amino}propyl]tetradecanamide bis(trifluoroacetate)], for which the MIC with E. coli (MTCC 443) is 39 µM; against S. aureus (MTCC 737) (24 h), 2.5 µM; in data set [1] it was 2.5 µM; in data set [2], 2.7 µM.
In the case of `CCCCCCCCCCCCCCCC(=O)N(CCCNC(=O)[C@@H](N)Cc1c[nH]c2ccccc12)CCCNC(=O)[C@@H](N)Cc1c[nH]c2ccccc12.O=C(O)C(F)(F)F.O=C(O)C(F)(F)F` [Compound 8, N,N-bis-[{3-(^LTrp)amino}propyl]hexadecanamide bis(trifluoroacetate)], the MIC against E. coli (MTCC 443) is recorded as greater than 257 µM; in the data set on S. aureus (MTCC 737) (24 h), 6.5 µM; in data set [1] it was 5.4 µM; in data set [2], 7 µM.
With `CCCCCCCCCCCCCCCC(=O)N(CCCNC(=O)[C@@H](N)CCCCN)CCCNC(=O)[C@@H](N)CCCCN.O=C(O)C(F)(F)F.O=C(O)C(F)(F)F` [Compound 12, N,N-bis-[{3-(^LLys)amino}propyl]hexadecanamide bis(trifluoroacetate)], the MIC was found to be 5.4 µM against E. coli (MTCC 443), 1.1 µM in data set [1] and 1 µM in data set [2]. In the data set on human Red Blood Cells (Table 3), this molecule displayed an HC50 of 264. In addition, the “Minimum Inhibitory Concentration MRSA” value in the data set with MRSA (ATCC 33591) was determined as 4.8 µM. The “Minimum Inhibitory Concentration K. pneumonie” value in data set [3] amounted to 6.5 µM.
For `CCCCCCCCCCCCCCCCCC(=O)N(CCCNC(=O)[C@@H](N)CCCCN)CCCNC(=O)[C@@H](N)CCCCN.O=C(O)C(F)(F)F.O=C(O)C(F)(F)F` [Compound 13, N,N-bis-[{3-(^LLys)amino}propyl]octadecanamide bis(trifluoroacetate)], the figures for the MIC (in the data set with E. coli (MTCC 443); in the data set on S. aureus (MTCC 737) (24 h); in data set [2]) were 8.4 µM, 7.7 µM and 2.2 µM, respectively. Also, in the data set with human Red Blood Cells (Table 3), the HC50 worked out at 108. Further, in the data set on MRSA (ATCC 33591), the “Minimum Inhibitory Concentration MRSA” value came out at 14 µM. The “Minimum Inhibitory Concentration K. pneumonie” value in data set [3] came out at 7.5 µM.
`CCCCCCCCCCCCCC(=O)N(CCCNC(=O)[C@@H](N)CCCN)CCCNC(=O)[C@@H](N)CCCN.O=C(O)C(F)(F)F.O=C(O)C(F)(F)F` [Compound 14, N,N-bis-[{3-(^LOrn)amino}propyl]tetradecanamide bis(trifluoroacetate)]: the MIC in the data set with E. coli (MTCC 443) came out at 6.6 µM; against S. aureus (MTCC 737) (24 h) it was 7.9 µM; in data set [1], 5.2 µM; in data set [2] it was 5.3 µM.
The matching figures for `CCCCCCCCCCCCCCCC(=O)N(CCCNC(=O)[C@@H](N)CCCN)CCCNC(=O)[C@@H](N)CCCN.O=C(O)C(F)(F)F.O=C(O)C(F)(F)F` [Compound 15, N,N-bis-[{3-(^LOrn)amino}propyl]hexadecanamide bis(trifluoroacetate)]: 5.2 µM, 6.4 µM, 3.2 µM and 3 µM.
The like results for `CCCCCCCCCCCCCCCC(=O)N(CCCNC(=O)[C@H](N)CCCCN)CCCNC(=O)[C@H](N)CCCCN.O=C(O)C(F)(F)F.O=C(O)C(F)(F)F` [Compound 17, N,N-bis-[{3-(^DLys)amino}propyl]hexadecanamide bis(trifluoroacetate)] were, in that order, 4.8 µM, 3.9 µM, 2.7 µM and 2.2 µM.
Consider `N[C@@H](Cc1ccccc1)C(=O)NCCCN(CCCNC(=O)[C@@H](N)Cc1ccccc1)C(=O)Cc1cccc2ccccc12` [Compound 21, N,N-bis-[{3-(^LPhe)amino}propyl]α-naphthylacetamide bis(trifluoroacetate)], for which the MIC is greater than 304 µM in the data set with E. coli (MTCC 443) (Escherichia coli, MTCC443); greater than 304 µM against S. aureus (MTCC 737) (Staphylococcus aureus, MTCC737, 24 h); greater than 304 µM in data set [1] (Enterococcus faecium, ATCC19634, 24 h); greater than 304 µM in data set [2].
With `N[C@@H](Cc1ccccc1)C(=O)NCCCNCCCNC(=O)[C@@H](N)Cc1ccccc1.O=C(O)C(F)(F)F.O=C(O)C(F)(F)F.O=C(O)C(F)(F)F` [Compound 22, N^1-^LPhe-N^3-[{3-(^LPhe)amino}propyl]propane-1,3-diamine tris(trifluoroacetate)], the MIC (against E. coli (MTCC 443); against S. aureus (MTCC 737) (24 h); in data set [1]; in data set [2]) was greater than 250 µM throughout. In addition, in the data set with MRSA (ATCC 33591), the “Minimum Inhibitory Concentration MRSA” value is greater than 250 µM. In addition, the “Minimum Inhibitory Concentration K. pneumonie” value in data set [3] was greater than 250 µM.
As to `NCCCC[C@H](N)C(=O)NCCCNCCCNC(=O)[C@@H](N)CCCCN.O=C(O)C(F)(F)F.O=C(O)C(F)(F)F.O=C(O)C(F)(F)F` [Compound 23, N^1-^LLys-N^3-[{3-(^LLys)amino}propyl]propane-1,3-diamine tris(trifluoroacetate)], the MIC (against E. coli (MTCC 443); with S. aureus (MTCC 737) (24 h); in data set [1]; in data set [2]) was greater than 250 µM throughout. In addition, in the data set with MRSA (ATCC 33591), the “Minimum Inhibitory Concentration MRSA” value is greater than 250 µM. Besides, the “Minimum Inhibitory Concentration K. pneumonie” value in data set [3] is greater than 250 µM.
`CCCCCCCCCCCCCCCC(=O)N(CCCNC(=O)[C@@H](N)[C@@H](C)CC)CCCNC(=O)[C@@H](N)[C@@H](C)CC.O=C(O)C(F)(F)F.O=C(O)C(F)(F)F` [Compound 53, N,N-bis-[{3-(^LIle)amido}propyl]hexadecanamide bis(trifluoroacetate)]: the MIC against E. coli (MTCC 443) was 26 µM; against S. aureus (MTCC 737) (24 h), 4 µM; in data set [1], 3 µM; in data set [2] it was 4.2 µM and 2.6 µM. Further, the HC50 in the data set with human Red Blood Cells (Table 6) was 60 µM. For the same molecule, in the data set with MRSA (ATCC 33591), the “Minimum Inhibitory Concentration MRSA” value is 2.6 µM and 2.7 µM.
Regarding `CCCCCCCCCCCCCC(=O)N(CCCNC(=O)[C@@H](N)CC(C)C)CCCNC(=O)[C@@H](N)CC(C)C.O=C(O)C(F)(F)F.O=C(O)C(F)(F)F` [Compound 55, N,N-bis-[{3-(^LLeu)amido}propyl]tetradecanamide bis(trifluoroacetate)], the MIC against E. coli (MTCC 443) was 5.4 µM; in the data set on S. aureus (MTCC 737) (24 h), 3.6 µM; in data set [1], 4.2 µM. Further, the HC50 with human Red Blood Cells (Table 6) is 118 µM.
For “N^1-octyl-N^3-(Boc-^LAla)-N^1-[3-{(Boc-^LAla)amino}propyl]propane-1,3-diamine tris(trifluoroacetate) [Compound 19]”, the MIC in the data set on E. coli (MTCC 443) is given as 343 µM; in the data set on S. aureus (MTCC 737) (24 h), 313 µM.
For the molecule “N^1-octyl-N^3-(Boc-^LLys)-N^1-[3-{(Boc-^LLys)amino}propyl]propane-1,3-diamine tris(trifluoroacetate) [Compound 20]”, the MIC is given as 133 µM against E. coli (MTCC 443) and 86 µM against S. aureus (MTCC 737) (24 h).
The matching figures for “N^1-octyl-N^3-(Boc-^LPhe)-N^1-[3-{(Boc-^LPhe)amino}propyl]propane-1,3-diamine tris(trifluoroacetate) [Compound 18]”: 68 µM and 38 µM.
